Read-outs that look alike come from different tables or passages of the source.
Tests used:
recombinant hVDR-LBD [1] = molecular target: T1, recombinant hVDR-LBD (Homo sapiens, UniProt P11473); conditions: relative to 1,25(OH)2D3
T1 sequence (P11473 140-427): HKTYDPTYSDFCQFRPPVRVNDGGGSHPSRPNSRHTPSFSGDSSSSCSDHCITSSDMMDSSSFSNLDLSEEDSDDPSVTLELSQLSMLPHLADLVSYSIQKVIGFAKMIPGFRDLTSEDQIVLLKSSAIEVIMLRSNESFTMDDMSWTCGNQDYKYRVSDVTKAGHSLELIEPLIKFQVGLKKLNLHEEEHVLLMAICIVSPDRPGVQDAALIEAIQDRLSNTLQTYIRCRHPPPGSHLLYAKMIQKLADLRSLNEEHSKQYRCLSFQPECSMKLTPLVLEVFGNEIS
Method: (§1) The pGEX-hVDR and pGEX were expressed for a GST-VDR fusion protein and a control GST protein, respectively, in Escherichia coli BL21 (Merck, Darmstadt, Germany). The bacteria were lysed by sonication in a sonication buffer (50 mM Tris-HCl, pH 8.0, 50 mM NaCl, 1 mM EDTA, and 1 mM DTT). The supernatant proteins (1 μg) were diluted in a binding buffer (25 mM Tris, pH 7.5, 100 mM KCl, 25 mM DTT, 4 mM CHAPS, pH 7.5) containing bovine serum albumin (100 μg/mL). A solution containing each test compound in 15 μL of EtOH was added to 570 μL of the GST protein solution in each tube. After being vortexed 2–3 times, the mixture was incubated for 30 min at room temperature. […] After being vortexed 2–3 times, the whole mixture was allowed to stand at 4 °C for 20 h, and 400 μL of dextran-coated charcoal solution (Sigma) was added to remove free ligands.
(§2) All values represent the means, and error bars are the standard deviations derived from triplicate assays.

hVDR = molecular target: T2, hVDR (Homo sapiens, UniProt P11473); test: VDR transactivation luciferase reporter assay in HEK293 cells (SPP×3-tk-LUC); assay type: cell-based
T2 construct: expressed in transfected cells; host or cells: HEK293
T2 sequence (P11473 1-427): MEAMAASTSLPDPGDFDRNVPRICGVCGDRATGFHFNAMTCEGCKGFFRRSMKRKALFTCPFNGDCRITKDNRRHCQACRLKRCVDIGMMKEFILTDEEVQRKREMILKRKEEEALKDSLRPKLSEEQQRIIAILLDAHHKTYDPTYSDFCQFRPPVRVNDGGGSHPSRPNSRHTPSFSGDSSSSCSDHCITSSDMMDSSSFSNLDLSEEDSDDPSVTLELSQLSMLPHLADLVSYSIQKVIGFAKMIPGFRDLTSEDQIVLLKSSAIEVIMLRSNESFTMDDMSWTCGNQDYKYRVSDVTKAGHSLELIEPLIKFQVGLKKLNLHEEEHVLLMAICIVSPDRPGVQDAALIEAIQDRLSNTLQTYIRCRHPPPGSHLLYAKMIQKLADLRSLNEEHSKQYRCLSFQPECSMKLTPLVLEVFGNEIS
Method: The transcriptional activity of the 25-alkylvitamin D analogs on the VDR was evaluated via a luciferase reporter assay in HEK293 human kidney cells transfected with an hVDR expression vector and a luciferase reporter with mouse osteopontin vitamin D response elements (VDREs, SPP×3-tk-LUC).
Transfections of 50 ng of TK-Spp × 3-LUC reporter plasmid, 10 ng of pCMX-β-galactosidase, and 15 ng of pCMX-VDR for each well of a 96-well plate were performed in HEK293 cells using the calcium phosphate coprecipitation method, as described previously. The mammalian two-hybrid assay for cofactor interaction with VDR used 50 ng of TK-MH100(UAS) × 3- LUC reporter plasmid, 10 ng of pCMX-β-galactosidase, 15 ng of pCMX-GAL4-RXRα, pCMX-GAL4-SRC1, or pCMX-GAL4-NCoR, and 15 ng of pCMX-VP16-VDR for each well of a 96-well plate. Luciferase and β-galactosidase activities were measured with a luminometer and a microplate reader (Molecular Devices, Sun Jose, CA, USA), respectively. Luciferase values were normalized to the internal β-galactosidase control.
HEK293 cells were co-transfected with TK-Spp × 3-LUC reporter plasmid and pCMX−VDR, and 8 h after transfection the cells were treated with several concentrations of each compound. After 24 h, the cells were harvested for assaying luciferase and β-galactosidase activity using a luminometer (Molecular Devices, Sunnyvale, CA, USA).

[2] = tested on: CYP24A1 expression in SW480 cells; test: CYP24A1 expression (RT-qPCR) in SW480 cells; conditions: SW480 intestine cells, 100 nM, 24 h
Method: (§3) HEK293 human kidney cells (RIKEN Cell Bank, Tsukuba, Japan) were cultured in Dulbecco’s modified Eagle’s medium (DMEM) (Fujifilm Wako Pure Chemical Corporation, Tokyo, Japan) containing 5% fetal bovine serum (FBS), 100 U/mL penicillin, and 0.1 mg/mL streptomycin (Nacalai Tesque, Kyoto, Japan). SW480 human colon carcinoma cells (American Type Culture Collection, Manassas, VA) and HaCaT immortalized keratinocyte cells (kindly provided by Dr. Tadashi Terui, Department of Dermatology, Nihon University School of Medicine) were cultured in DMEM containing 10% FBS, 100 U/mL penicillin, and 0.1 mg/mL streptomycin. MG63 human osteosarcoma cells (RIKEN Cell Bank) and lung-derived H292 cells (American Type Culture Collection) were cultured in minimum essential medium containing 10% FBS, 100 U/mL penicillin, and 0.1 mg/mL streptomycin. […] All cells were cultured at 37 °C in a humidified atmosphere containing 5% CO2.
(§4) For gene expression analysis, 1 × 10^4 cells per well were plated in a 24-well plate. After 24 h, the cells were treated with an ethanol control or 100 nM of each test compound for 24 h. […] Real-time PCR was performed on the ABI PRISM 7000 sequence detection system (Thermo Fisher Scientific, Waltham, MA, USA) using Power SYBR Green PCR master mix (Thermo Fisher Scientific).

VDR with NCoR = molecular target: T3, VDR with NCoR (Homo sapiens, UniProt P11473); test: Mammalian two-hybrid assay, dissociation of NCoR from the VDR
T3 sequence (P11473 1-427): T2 sequence (P11473 1-427)
Method: We used the expression plasmids pCMX-VDR, pCMX-VP16- VDR, pCMX-GAL4-RXRα, pCMX-GAL4-SRC-1, and pCMX-GAL4- N-CoR, as reported previously [43]. […] We used luciferase reporters: VDR-responsive Sppx3-tk-LUC and GAL4-responsive MH100(UAS) × 4-tk-LUC reporters [43].
Transfections of 50 ng of TK-Spp × 3-LUC reporter plasmid, 10 ng of pCMX-β-galactosidase, and 15 ng of pCMX-VDR for each well of a 96-well plate were performed in HEK293 cells using the calcium phosphate coprecipitation method, as described previously [43]. The mammalian two-hybrid assay for cofactor interaction with VDR used 50 ng of TK-MH100(UAS) × 3- LUC reporter plasmid, 10 ng of pCMX-β-galactosidase, 15 ng of pCMX-GAL4-RXRα, pCMX-GAL4-SRC1, or pCMX-GAL4-NCoR, and 15 ng of pCMX-VP16-VDR for each well of a 96-well plate. Luciferase and β-galactosidase activities were measured with a luminometer and a microplate reader (Molecular Devices, Sun Jose, CA, USA), respectively. Luciferase values were normalized to the internal β-galactosidase control.
(B) Effects on the interactions between the VDR and SRC-1. HEK293 cells were co-transfected with CMX-GAL4-SRC-1, CMX-VP16-VDR, and MH100 (UAS) × 4-tk-LUC and were treated with each compound over a range of concentrations. (C) Effects on interactions of the VDR with NCoR-1. HEK293 cells were co-transfected with CMX-GAL4-N-CoR in combination with CMX-VP16-VDR and MH100 (UAS) × 4-tk-LUC and were treated with each compound over a range of concentrations.

[3] = tested on: CYP24A1 expression in U937 cells; test: CYP24A1 expression (RT-qPCR) in U937 cells; conditions: U937 blood cells, 100 nM, 24 h
Method: (§5) SW480 human colon carcinoma cells (American Type Culture Collection, Manassas, VA) and HaCaT immortalized keratinocyte cells (kindly provided by Dr. Tadashi Terui, Department of Dermatology, Nihon University School of Medicine) were cultured in DMEM containing 10% FBS, 100 U/mL penicillin, and 0.1 mg/mL streptomycin. […] All cells were cultured at 37 °C in a humidified atmosphere containing 5% CO2.
(§6) For gene expression analysis, 1 × 10^4 cells per well were plated in a 24-well plate. After 24 h, the cells were treated with an ethanol control or 100 nM of each test compound for 24 h. The total RNAs from the samples were extracted using the acid guanidine thiocyanate phenol/chloroform method [57], and cDNAs were synthesized using the ImProm-II reverse transcription system (Promega, Madison, WI) [43]. Real-time PCR was performed on the ABI PRISM 7000 sequence detection system (Thermo Fisher Scientific, Waltham, MA, USA) using Power SYBR Green PCR master mix (Thermo Fisher Scientific).
(§7) One-way ANOVA followed by Turkey’s multiple comparisons: ※ p < 0.05, ※※ p < 0.01, ※※※ p < 0.001 versus vehicle control.

[4] = tested on: CYP24A1 expression in HaCaT cells; test: CYP24A1 expression (RT-qPCR) in HaCaT cells; conditions: HaCaT skin cells, 100 nM, 24 h
Method: as §5, §6, §7

[5] = tested on: human dedifferentiated fat (DFAT) cells; test: Osteogenic differentiation assay: ALP activity in human DFAT cells; assay type: cell-based; conditions: osteogenic medium, 100 nM, 7 days, natural hormone 1 = 100%
Method: Mature adipocytes from the adipose tissue of mammals such as humans and rodents can be dedifferentiated into pluripotent cells using ceiling culture. Dedifferentiated fat (DFAT) cells have potential applications in both regenerative medicine and injury healing, as well as mesenchymal stem cells, embryonic stem cells, and induced pluripotent stem cells. The osteogenic activity of vitamin D derivatives was assessed based on alkaline phosphatase (ALP) activity.
Samples of human subcutaneous adipose tissue were obtained from patients who underwent surgery in the Department of Pediatric Surgery at Nihon University Itabashi Hospital (Tokyo, Japan). The patients gave their written informed consent, and the Ethics Committee of Nihon University School of Medicine approved this study. We prepared dedifferentiated fat (DFAT) cells using the ceiling culture method, as described previously. Briefly, the adipose tissue (approximately 1 g) was cut into small pieces and digested with a 0.1% type I collagenase solution (Koken Co., Ltd., Tokyo, Japan). […] The cells that adhered to the upper surface of the flasks were cultured for conversion to dedifferentiated fat cells. […] Cells at passages 2–4 were used for differentiation experiments.
Cells were grown to confluency in 24-well plates and incubated for a week in DMEM containing 10% FBS, 100 nM dexamethasone (Merk), 10 mM β-glycerophosphate (Merk), and […] L-ascorbic acid-2-phosphate (Merk), with 100 nM of each compound. The induction medium was replaced on day 4. The alkaline phosphatase (ALP) activity in the cell lysates was determined on day 7 with a lab assay ALP kit (Fujifilm wako). The total protein content was determined with the BCA protein assay kit (Thermo Fisher Scientific). ALP levels were normalized to the total protein content.

[6] = tested on: CYP24A1 expression in H292 cells; test: CYP24A1 expression (RT-qPCR) in H292 cells; conditions: H292 lung cells, 100 nM, 24 h
Method: as §3, §4

recombinant hVDR-LBD [7] = molecular target: T1, recombinant hVDR-LBD; test: biochemical
Method: as §1, §2

## C=C1[C@H](O)CC(=C/C=C2\CCC[C@]3(C)[C@@H]([C@H](C)CC#C[C@](O)(CCCC)C45CC6CC(CC(C6)C4)C5)CC[C@@H]23)C[C@H]1O [ADKM6, (25S)-25-(1-Adamantyl)-1α,25-dihydroxy-2-methylidene-26-propyl-23-yne-19,27-dinorvitamin D3]
Recombinant hVDR-LBD [1]
  VDR affinity, % of that of 1,25(OH)2D3: 23%
hVDR; 1,25(OH)2D3 = 100%
  Transcriptional activity efficacy: 95%
hVDR; read-out: Transcriptional activity EC50
  EC50: 0.62 nM
hVDR; this study, read-out: Transcriptional Activity % Efficacy of That of 1 (converted)
  Emax: 95%
hVDR; this study, read-out: Transcriptional Activity EC50
  EC50: 0.6 nM
[2]
  CYP24A1 expression relative to natural hormone 1: 72.9%
VDR with NCoR
  IC50: 0.4 nM
[3]
  CYP24A1 expression relative to natural hormone 1: 77.2%
[4]
  CYP24A1 expression relative to natural hormone 1: 72.5%
[5]
  ALP activity: 62.4%
[6]
  CYP24A1 expression relative to natural hormone 1: 87.9%
Recombinant hVDR-LBD [7]
  IC50: 1.6 nM
